Assays:
Format in all cases: cell-based
MCF10A = assay: WST-1 cytotoxicity, 72 h; conditions: mean ± SEM
Summary of the method: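 Cells seeded at 1000 per well, with WST-1 added after 72 h and absorbance read at 450 nm 1 h later. Apparent IC50 from a nonlinear fit of % survival versus log concentration; three separate experiments, each n = 3.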

HT29 cells [1] = assay: DCFDA cellular ROS detection assay; conditions: complexes at IC50, TBHP 20 µM
Summary of the method: (§1)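 Cells seeded at 2500 cells/well overnight, then loaded with 25 µM DCFH-DA for 45 min. DCF fluorescence (ex/em 485/535 nm, RFU) read at multiple time points; 20 µM TBHP served as positive control. Three independent experiments in triplicate.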

MDA−MB−231 cells [2] = assay: DCFDA cellular ROS detection assay; conditions: complexes at IC50, TBHP 20 µM
Summary of the method: as §1

HT29 cells [3] = assay: Western blot protein expression; conditions: HT29, IC50, 72 h
Summary of the method: (§2)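 Cells were lysed in RIPA buffer with orthovanadate, and 20 µg protein was run on SDS-PAGE, transferred to PVDF and probed for proliferation, apoptosis, microtubule and autophagy markers. ECL band intensities were normalised to GAPDH and then to untreated control. Three independent experiments were run per marker.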

MDA−MB−231 cells [4] = assay: Western blot protein expression; conditions: MDA−MB−231, IC50, 72 h
Summary of the method: as §2

[5] = representative blot Figure S30G
[6] = representative blot Figure S30H

SMILES: N[C@H]1CCCC[C@@H]1N.O=[N+]([O-])[O-].O=[N+]([O-])[O-].[Pt+2].c1cnc2c(c1)ccc1cccnc12 [[Pt(1,10-phenanthroline)(1S,2S-diaminocyclohexane)](NO3)2]
- IC50 (MCF10A): 3.49 ± 1.39 µM
- ROS production (HT29 cells [1]; HT29, 24 h): 219.00 RFU
- ROS production (HT29 cells [1]; HT29, 48 h): 256.22 RFU
- ROS production (HT29 cells [1]; HT29, 72 h): 273.00 RFU
- ROS production (MDA−MB−231 cells [2]; MDA−MB−231, 24 h): 234.82 RFU
- ROS production (MDA−MB−231 cells [2]; MDA−MB−231, 48 h): 285.31 RFU
- ROS production (MDA−MB−231 cells [2]; MDA−MB−231, 72 h): 297.81 RFU
- β-actin/GAPDH normalized to control (1) (HT29 cells [3]; representative blot Figure S28A): 0.1267
- β-tubulin/GAPDH normalized to control (1) (HT29 cells [3]; representative blot Figure S28B): 0.232
- α-tubulin/GAPDH normalized to control (1) (HT29 cells [3]; representative blot Figure S28C): 0.09086
- p-AKT/AKT/GAPDH normalized to control (1) (HT29 cells [3]; representative blot Figure S29A): 0.09219
- p-ERK/ERK/GAPDH normalized to control (1) (HT29 cells [3]; representative blot Figure S29B): 0.9509
- p53/GAPDH normalized to control (1) (HT29 cells [3]; representative blot Figure S29C): 4.791
- p21/GAPDH normalized to control (1) (HT29 cells [3]; representative blot Figure S29D): 3.18
- Bax/GAPDH normalized to control (1) (HT29 cells [3]; representative blot Figure S30A): 3.407
- Bcl2/GAPDH normalized to control (1) (HT29 cells [3]; representative blot Figure S30B): 0.2872
- Cyt C/GAPDH normalized to control (1) (HT29 cells [3]; representative blot Figure S30C): 1.692
- Procaspase 8/GAPDH normalized to control (1) (HT29 cells [3]; representative blot Figure S30D): 0.1633
- Cleaved BID/GAPDH normalized to control (1) (HT29 cells [3]; representative blot Figure S30E): 1.611
- Procaspase 9/GAPDH normalized to control (1) (HT29 cells [3]; representative blot Figure S30F): 0.1981
- Cleaved caspase 3/GAPDH normalized to control (1) (HT29 cells [3]; [5]): 17.46
- Procaspase 3/GAPDH normalized to control (1) (HT29 cells [3]; [5]): 0.4874
- Cleaved PARP-1/GAPDH normalized to control (1) (HT29 cells [3]; [6]): 8.496
- PARP-1/GAPDH normalized to control (1) (HT29 cells [3]; [6]): 0.2612
- Beclin1/GAPDH normalized to control (1) (HT29 cells [3]; representative blot Figure S31A): 5.324
- ATG5/GAPDH normalized to control (1) (HT29 cells [3]; representative blot Figure S31B): 0.9428
- ATG16L1/GAPDH normalized to control (1) (HT29 cells [3]; representative blot Figure S31C): 3.844
- ATG9A/GAPDH normalized to control (1) (HT29 cells [3]; representative blot Figure S31D): 0.465
- ATG4B/GAPDH normalized to control (1) (HT29 cells [3]; representative blot Figure S31E): 0.6844
- LC3B/GAPDH normalized to control (1) (HT29 cells [3]; representative blot Figure S31F): 2.121
- β-actin/GAPDH normalized to control (1) (MDA−MB−231 cells [4]; representative blot Figure S24A): 0.4744
- β-tubulin/GAPDH normalized to control (1) (MDA−MB−231 cells [4]; representative blot Figure S24B): 1.15
- α-tubulin/GAPDH normalized to control (1) (MDA−MB−231 cells [4]; representative blot Figure S24C): 0.9355
- p-AKT/AKT/GAPDH normalized to control (1) (MDA−MB−231 cells [4]; representative blot Figure S25A): 0.6042
- p-ERK/ERK/GAPDH normalized to control (1) (MDA−MB−231 cells [4]; representative blot Figure S25B): 0.6771
- p53/GAPDH normalized to control (1) (MDA−MB−231 cells [4]; representative blot Figure S25C): 1.105
- p21/GAPDH normalized to control (1) (MDA−MB−231 cells [4]; representative blot Figure S25D): 1.812
- Bax/GAPDH normalized to control (1) (MDA−MB−231 cells [4]; representative blot Figure S26A): 1.161
- Bcl2/GAPDH normalized to control (1) (MDA−MB−231 cells [4]; representative blot Figure S26B): 0.8361
- Cytochrome C/GAPDH normalized to control (1) (MDA−MB−231 cells [4]; representative blot Figure S26C): 1.827
- Procaspase 8/GAPDH normalized to control (1) (MDA−MB−231 cells [4]; representative blot Figure S26D): 0.5195
- Cleaved BID/GAPDH normalized to control (1) (MDA−MB−231 cells [4]; representative blot Figure S26E): 13.39
- Procaspase 9/GAPDH normalized to control (1) (MDA−MB−231 cells [4]; representative blot Figure S26F): 0.2042
- Procaspase 3/GAPDH normalized to control (1) (MDA−MB−231 cells [4]; representative blot Figure S26G): 0.3207
- PARP-1/GAPDH normalized to control (1) (MDA−MB−231 cells [4]; representative blot Figure S26H): 0.7775
- Beclin1/GAPDH normalized to control (1) (MDA−MB−231 cells [4]; representative blot Figure S27A): 1.911
- ATG5/GAPDH normalized to control (1) (MDA−MB−231 cells [4]; representative blot Figure S27B): 0.7762
- ATG16L1/GAPDH normalized to control (1) (MDA−MB−231 cells [4]; representative blot Figure S27C): 0.6758
- ATG9A/GAPDH normalized to control (1) (MDA−MB−231 cells [4]; representative blot Figure S27D): 0.361
- ATG4B/GAPDH normalized to control (1) (MDA−MB−231 cells [4]; representative blot Figure S27E): 1.546
- LC3B/GAPDH normalized to control (1) (MDA−MB−231 cells [4]; representative blot Figure S27F): 0.9969

— article PMC11274883, “Anticancer Effect of Pt^[sequence], Pt^II5MESS, Pt^II56MESS and Their Platinum(IV)-Dihydroxy Derivatives against Triple-Negative Breast Cancer and Cisplatin-Resistant Colorectal Cancer” (Cancers, 2024)
